# Test results from PMC12638379, “An innovative approach to development of new pyrazolylquinolin-2-one hybrids as dual EGFR and BRAF^V600E inhibitors” (Molecular Diversity, 2025).
# Where two headings read alike, the source gives them in different places.
# Key:
# BRAF^V600E = BRAF^V600E (Homo sapiens, UniProt P15056, V600E); assay: BRAF^V600E inhibitory assay (B-Raf (V600E) Kinase Assay); type: biochemical; details: read-out: BRAF^V600E inhibition IC50 ± SEM
# EGFR = biological target: T1, EGFR (Homo sapiens, UniProt P00533); assay: EGFR inhibitory assay; type: biochemical; details: for %inh: EGFR, unit not given
# T1 construct: EGFR cytoplasmic domain (EGFR-CD, amino acids 645–1186); His6 (N); made in house; host or cells: Sf-9 insect cells (baculovirus)
# T1 sequence (P00533 669-1210): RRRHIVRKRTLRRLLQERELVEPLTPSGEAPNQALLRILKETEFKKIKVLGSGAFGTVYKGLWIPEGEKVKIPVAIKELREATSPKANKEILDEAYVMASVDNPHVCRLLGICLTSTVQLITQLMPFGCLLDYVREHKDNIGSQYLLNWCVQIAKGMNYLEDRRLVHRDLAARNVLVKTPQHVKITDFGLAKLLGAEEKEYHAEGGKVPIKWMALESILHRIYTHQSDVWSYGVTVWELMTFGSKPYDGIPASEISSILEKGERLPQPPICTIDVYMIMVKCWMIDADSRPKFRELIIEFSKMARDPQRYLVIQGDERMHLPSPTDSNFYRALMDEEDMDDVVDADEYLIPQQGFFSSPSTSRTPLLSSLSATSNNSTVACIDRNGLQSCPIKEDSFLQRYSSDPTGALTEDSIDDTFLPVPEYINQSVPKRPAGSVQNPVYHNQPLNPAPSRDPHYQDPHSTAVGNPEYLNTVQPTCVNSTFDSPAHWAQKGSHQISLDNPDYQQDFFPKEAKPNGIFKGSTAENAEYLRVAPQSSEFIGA
# [1] = MTT cytotoxicity on normal cell line WI-38; details: human, WI-38 normal cells, % viability
# normal cell line WI-38 = assay: MTT cytotoxicity on normal cell line WI-38
# NCI 60 cancer cell lines = assay: NCI anticancer screening over a panel of 60 cancer cells, single concentration 10 µM; type: cell-based, human; details: Homo sapiens, read-out: % Growth Inhibition (GI %)
# How it was run: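 Run under the NCI Compound Evaluation Branch protocol, each compound was tested once at 10 µM. The panel comprised 60 cancer cell lines of diverse tissue origin, including leukemia, lung, colon, CNS, renal, ovarian, breast and prostate.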
# [2] = system: leukemia (MOLT-4) cell line; assay: MTT antiproliferative assay, MOLT-4; type: cell-based, human
# Experimental: After 24 h of culture incubation and supernatants discarded.
# [3] = system: breast cancer (T47D) cell line; assay: MTT antiproliferative assay, T-47D
# How it was run: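 HOP-92, MOLT-4 and T-47D cells in DMEM/10% FBS/insulin exposed 24 h to serial 10-fold dilutions […]; MTT added 2–4 h, absorbance at 570 nm with 690 nm background subtraction. Percent viable cells gives IC50; GI50 is the average IC50 across the three lines.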
# Chain of BRAF^V600E (P15056 whole entry V600E): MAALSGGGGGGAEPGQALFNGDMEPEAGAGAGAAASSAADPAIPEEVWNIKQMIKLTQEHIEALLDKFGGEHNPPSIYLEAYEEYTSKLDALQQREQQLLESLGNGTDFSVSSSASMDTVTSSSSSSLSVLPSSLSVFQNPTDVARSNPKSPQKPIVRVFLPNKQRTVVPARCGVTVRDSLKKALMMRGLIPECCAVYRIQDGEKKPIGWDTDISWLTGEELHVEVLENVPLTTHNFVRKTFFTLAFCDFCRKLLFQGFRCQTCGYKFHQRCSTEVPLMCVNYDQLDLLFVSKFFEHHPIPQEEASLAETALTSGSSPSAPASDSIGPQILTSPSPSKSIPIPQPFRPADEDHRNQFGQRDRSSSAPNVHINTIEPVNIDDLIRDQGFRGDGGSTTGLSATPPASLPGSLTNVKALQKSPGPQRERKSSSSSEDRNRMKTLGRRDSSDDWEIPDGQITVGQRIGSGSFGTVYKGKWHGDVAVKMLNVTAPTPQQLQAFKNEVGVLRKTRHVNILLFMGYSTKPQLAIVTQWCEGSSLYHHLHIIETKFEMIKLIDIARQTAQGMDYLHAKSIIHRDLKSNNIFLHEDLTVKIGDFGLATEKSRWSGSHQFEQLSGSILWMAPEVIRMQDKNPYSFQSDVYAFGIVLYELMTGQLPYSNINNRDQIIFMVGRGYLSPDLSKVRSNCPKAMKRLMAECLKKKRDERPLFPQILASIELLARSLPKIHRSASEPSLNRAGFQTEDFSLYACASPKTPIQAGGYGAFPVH
smiles,measurement,setting,value
"C/C(=N\Nc1ccc(S(N)(=O)=O)cc1)c1cnn(-c2cc(=O)[nH]c3ccc(Cl)cc23)c1C [Compound 4d, (E)-4-(2-(1-(1-(6-chloro-2-oxo-1,2-dihydroquinolin-4-yl)-5-methyl-1H-pyrazol-4-yl)ethylidene)hydrazineyl)benzenesulfonamide]",IC50,BRAF^V600E,0.249 ± 0.01 µM
same,%inh,EGFR; conc 0.01 (log -2),27.8%
same,%inh,EGFR; conc 0.1 (log -1),40.6%
same,%inh,EGFR; conc 1 (log 0),72.7%
same,%inh,EGFR; conc 10 (log 1),86.9%
same,%inh,EGFR; conc 100 (log 2),93.7%
same,IC50,EGFR; read-out: EGFR inhibition IC50 ± SEM,0.156 ± 0.006 µM
same,"viability at 24 h, 0.4 µM","[1]; WI38, 0.4uM (log conc. -0.41)",80.9%
same,"viability at 24 h, 1.6 µM","[1]; WI38, 1.6uM (log conc. 0.19)",73.3%
same,"viability at 24 h, 6.3 µM","[1]; WI38, 6.3uM (log conc. 0.8)",63.5%
same,"viability at 24 h, 25 µM","[1]; WI38, 25uM (log conc. 1.4)",56.2%
same,"viability at 24 h, 100 µM","[1]; WI38, 100uM (log conc. 2)",46.8%
same,IC50,"normal cell line WI-38; Homo sapiens, read-out: Antiproliferative activity IC50 ± SEM",62.5 ± 2.49 µM
same,% viability,"normal cell line WI-38; WI38, 0.4uM (log conc. -0.41), listed as Ws4, 0.4 µM",80.87%
same,% viability,"normal cell line WI-38; WI38, 1.6uM (log conc. 0.19), listed as Ws4, 1.6 µM",73.32%
same,% viability,"normal cell line WI-38; WI38, 6.3uM (log conc. 0.8), listed as Ws4, 6.3 µM",63.52%
same,% viability,"normal cell line WI-38; WI38, 25uM (log conc. 1.4), listed as Ws4, 25 µM",56.21%
same,% viability,"normal cell line WI-38; WI38, 100uM (log conc. 2), listed as Ws4, 100 µM",46.82%
same,inhibition at 10 µM,"NCI 60 cancer cell lines; 786-0, Renal cancer 786-0, 10 μM",14.4%
same,inhibition at 10 µM,"NCI 60 cancer cell lines; A498, Renal cancer A498, 10 μM",< 5%
same,inhibition at 10 µM,"NCI 60 cancer cell lines; A549, Non-small cell lung cancer A549/ATCC, 10 μM",< 5%
same,inhibition at 10 µM,"NCI 60 cancer cell lines; ACHN, Renal cancer ACHN, 10 μM",14.1%
same,inhibition at 10 µM,"NCI 60 cancer cell lines; BT-549, Breast cancer BT-549, 10 μM",56.3%
same,inhibition at 10 µM,"NCI 60 cancer cell lines; CAKI-1, Renal cancer CAKI-1, 10 μM",21.5%
same,inhibition at 10 µM,"NCI 60 cancer cell lines; CCRF-CEM, Leukemia CCRF-CEM, 10 μM",52.2%
same,inhibition at 10 µM,"NCI 60 cancer cell lines; COLO 205, Colon cancer COLO 205, 10 μM",< 5%
same,inhibition at 10 µM,"NCI 60 cancer cell lines; DU-145, Prostate cancer DU-145, 10 μM",10.9%
same,inhibition at 10 µM,"NCI 60 cancer cell lines; EKVX, Non-small cell lung cancer EKVX, 10 μM",10.1%
same,inhibition at 10 µM,"NCI 60 cancer cell lines; HCC 2998, Colon cancer HCC-2998, 10 μM",< 5%
same,inhibition at 10 µM,"NCI 60 cancer cell lines; HCT-15, Colon cancer HCT-15, 10 μM",< 5%
same,inhibition at 10 µM,"NCI 60 cancer cell lines; HCT-116, Colon cancer HCT-116, 10 μM",19.1%
same,inhibition at 10 µM,"NCI 60 cancer cell lines; HL-60, Leukemia HL-60(TB), 10 μM",< 5%
same,inhibition at 10 µM,"NCI 60 cancer cell lines; HOP-62, Non-small cell lung cancer HOP-62, 10 μM",24.6%
same,inhibition at 10 µM,"NCI 60 cancer cell lines; HOP-92, Non-small cell lung cancer HOP-92, 10 μM",< 5%
same,inhibition at 10 µM,"NCI 60 cancer cell lines; HT-29, Colon cancer HT29, 10 μM",< 5%
same,inhibition at 10 µM,"NCI 60 cancer cell lines; Hs-578T, Breast cancer HS 578T, 10 μM",36.3%
same,inhibition at 10 µM,"NCI 60 cancer cell lines; IGROV-1, Ovarian cancer IGROV1, 10 μM",14.6%
same,inhibition at 10 µM,"NCI 60 cancer cell lines; K562, Leukemia K-562, 10 μM",29.7%
same,inhibition at 10 µM,"NCI 60 cancer cell lines; KM12, Colon cancer KM12, 10 μM",16.7%
same,inhibition at 10 µM,"NCI 60 cancer cell lines; LOX IMVI, Melanoma LOX IMVI, 10 μM",29%
same,inhibition at 10 µM,"NCI 60 cancer cell lines; Leukemia SR, 10 μM",71.6%
same,inhibition at 10 µM,"NCI 60 cancer cell lines; MCF7, Breast cancer MCF7, 10 μM",36.3%
same,inhibition at 10 µM,"NCI 60 cancer cell lines; MDA-MB-231, Breast cancer MDA-MB-231/ATCC, 10 μM",51.7%
same,inhibition at 10 µM,"NCI 60 cancer cell lines; MDA-MB-435, Melanoma MDA-MB-435, 10 μM",27.3%
same,inhibition at 10 µM,"NCI 60 cancer cell lines; MDA-MB-468, Breast cancer MDA-MB-468, 10 μM",47.2%
same,inhibition at 10 µM,"NCI 60 cancer cell lines; MOLT-4, Leukemia MOLT-4, 10 μM",34.3%
same,inhibition at 10 µM,"NCI 60 cancer cell lines; Melanoma M14, 10 μM",20.7%
same,inhibition at 10 µM,"NCI 60 cancer cell lines; Melanoma MALM-3M, 10 μM",44.5%
same,inhibition at 10 µM,"NCI 60 cancer cell lines; NCI-H23, Non-small cell lung cancer NCI-H23, 10 μM",16.9%
same,inhibition at 10 µM,"NCI 60 cancer cell lines; NCI-H226, Non-small cell lung cancer NCI-H226, 10 μM",17.6%
same,inhibition at 10 µM,"NCI 60 cancer cell lines; NCI-H322M, Non-small cell lung cancer NCI-H322M, 10 μM",8.41%
same,inhibition at 10 µM,"NCI 60 cancer cell lines; NCI-H460, Non-small cell lung cancer NCI-H460, 10 μM",6.52%
same,inhibition at 10 µM,"NCI 60 cancer cell lines; NCI-H522, Non-small cell lung cancer NCI-H522, 10 μM",44.8%
same,inhibition at 10 µM,"NCI 60 cancer cell lines; NCI/ADR-RES, Ovarian cancer NCI/ADR-RES, 10 μM",5.85%
same,inhibition at 10 µM,"NCI 60 cancer cell lines; OVCAR-3, Ovarian cancer OVCAR-3, 10 μM",23.4%
same,inhibition at 10 µM,"NCI 60 cancer cell lines; OVCAR-4, Ovarian cancer OVCAR-4, 10 μM",24.2%
same,inhibition at 10 µM,"NCI 60 cancer cell lines; OVCAR-5, Ovarian cancer OVCAR-5, 10 μM",11.5%
same,inhibition at 10 µM,"NCI 60 cancer cell lines; OVCAR-8, Ovarian cancer OVCAR-8, 10 μM",6.15%
same,inhibition at 10 µM,"NCI 60 cancer cell lines; Prostate cancer PC-3, 10 μM",18.5%
same,inhibition at 10 µM,"NCI 60 cancer cell lines; RPMI-8226, Leukemia RPMI-8226, 10 μM",15.7%
same,inhibition at 10 µM,"NCI 60 cancer cell lines; RXF 393, Renal cancer RXF 393, 10 μM",< 5%
same,inhibition at 10 µM,"NCI 60 cancer cell lines; SF-268, CNS Cancer SF-268, 10 μM",28.7%
same,inhibition at 10 µM,"NCI 60 cancer cell lines; SF-295, CNS Cancer SF-295, 10 μM",9.48%
same,inhibition at 10 µM,"NCI 60 cancer cell lines; SF-539, CNS Cancer SF-539, 10 μM",33%
same,inhibition at 10 µM,"NCI 60 cancer cell lines; SK-MEL-2, Melanoma SK-MEL-2, 10 μM",27.2%
same,inhibition at 10 µM,"NCI 60 cancer cell lines; SK-MEL-5, Melanoma SK-MEL-5, 10 μM",21.8%
same,inhibition at 10 µM,"NCI 60 cancer cell lines; SK-MEL-28, Melanoma SK-MEL-28, 10 μM",24.7%
same,inhibition at 10 µM,"NCI 60 cancer cell lines; SK-OV-3, Ovarian cancer SK-OV-3, 10 μM",24.1%
same,inhibition at 10 µM,"NCI 60 cancer cell lines; SN12C, Renal cancer SN12C, 10 μM",27%
same,inhibition at 10 µM,"NCI 60 cancer cell lines; SNB-19, CNS Cancer SNB-19, 10 μM",24.9%
same,inhibition at 10 µM,"NCI 60 cancer cell lines; SNB-75, CNS Cancer SNB-75, 10 μM",35.4%
same,inhibition at 10 µM,"NCI 60 cancer cell lines; SW-620, Colon cancer SW-620, 10 μM",7.13%
same,inhibition at 10 µM,"NCI 60 cancer cell lines; T47D, Breast cancer T-47D, 10 μM",54%
same,inhibition at 10 µM,"NCI 60 cancer cell lines; TK-10, Renal cancer TK-10, 10 μM",< 5%
same,inhibition at 10 µM,"NCI 60 cancer cell lines; U-251, CNS Cancer U251, 10 μM",26.3%
same,inhibition at 10 µM,"NCI 60 cancer cell lines; UACC-62, Melanoma UACC-62, 10 μM",41.8%
same,inhibition at 10 µM,"NCI 60 cancer cell lines; UACC-257, Melanoma UACC-257, 10 μM",4.52%
same,inhibition at 10 µM,"NCI 60 cancer cell lines; UO-31, Renal cancer UO-31, 10 μM",37.7%
same,viability at 0.4 µM,"[2]; Homo sapiens, MOLT-4, MOLT-4, MTT, 0.4uM",69.9%
same,viability at 1.6 µM,"[2]; Homo sapiens, MOLT-4, MOLT-4, MTT, 1.6uM",62.7%
same,viability at 6.3 µM,"[2]; Homo sapiens, MOLT-4, MOLT-4, MTT, 6.3uM",51.6%
same,viability at 25 µM,"[2]; Homo sapiens, MOLT-4, MOLT-4, MTT, 25uM",40.9%
same,viability at 100 µM,"[2]; Homo sapiens, MOLT-4, MOLT-4, MTT, 100uM",30.2%
same,IC50,"[2]; Homo sapiens, MOLT-4, MTT, read-out: Antiproliferative activity IC50 ± SEM, MOLT-4",7.24 ± 0.29 µM
same,% viability,"[2]; MOLT-4, MTT, 0.4uM, listed as Ws4, 0.4 µM",69.89%
same,% viability,"[2]; MOLT-4, MTT, 1.6uM, listed as Ws4, 1.6 µM",62.75%
same,% viability,"[2]; MOLT-4, MTT, 25uM, listed as Ws4, 25 µM",40.91%
same,% viability,"[2]; MOLT-4, MTT, 100uM, listed as Ws4, 100 µM",30.23%
same,viability at 0.4 µM,"[3]; Homo sapiens, T47D, T-47D, MTT, 0.4uM",77.2%
same,viability at 1.6 µM,"[3]; Homo sapiens, T47D, T-47D, MTT, 1.6uM",68.1%
same,viability at 6.3 µM,"[3]; Homo sapiens, T47D, T-47D, MTT, 6.3uM",56.8%
same,viability at 25 µM,"[3]; Homo sapiens, T47D, T-47D, MTT, 25uM",45.8%
same,viability at 100 µM,"[3]; Homo sapiens, T47D, T-47D, MTT, 100uM",33.6%
same,IC50,"[3]; Homo sapiens, T47D, read-out: Antiproliferative activity IC50 ± SEM, T-47D, MTT",13.8 ± 0.48 µM
same,% viability,"[3]; T-47D, MTT, 1.6uM, listed as Ws4, 1.6 µM",68.09%
same,% viability,"[3]; T-47D, MTT, 6.3uM, listed as Ws4, 6.3 µM",56.85%
same,% viability,"[3]; T-47D, MTT, 25uM, listed as Ws4, 25 µM",45.78%
same,% viability,"[3]; T-47D, MTT, 100uM, listed as Ws4, 100 µM",33.56%
